Experimental data taken from publication PMC5218480 (PLoS ONE, 2017).

Test system: MV-4-11 cells
Assay: Gene expression microarray analysis (Affymetrix PrimeView) and GSEA
Assay type: cell-based, human
Set-up: RFU PODN (11730768_x_at) / Fold change /veh PODN (11730768_x_at) / RFU LINC00158 (11744669_a_at) / Fold change /veh LINC00158 (11744669_a_at) / RFU DUSP10 (11751237_a_at) / Fold change /veh DUSP10 (11751237_a_at) / RFU ID3 (11757404_x_at) / Fold change /veh ID3 (11757404_x_at) / RFU PLEKHG5 (11737974_s_at) / Fold change /veh PLEKHG5 (11737974_s_at) / RFU LRRC4B (11730491_at) / Fold change /veh LRRC4B (11730491_at) / RFU GIMAP4 (11747438_a_at) / Fold change /veh GIMAP4 (11747438_a_at) / RFU KRT8 (11758183_x_at) / Fold change /veh KRT8 (11758183_x_at) / RFU CNN1 (11734310_a_at) / Fold change /veh CNN1 (11734310_a_at) / RFU VPS37D (11726825_at) / Fold change /veh VPS37D (11726825_at) / RFU C10orf10 (11716522_x_at) / Fold change /veh C10orf10 (11716522_x_at) / RFU KIR2DL2 /// KIR2DL4 /// KIR2DL5A /// KIR2DL5B /// KIR2DS1 /// KIR2DS2 /// KIR2DS3 /// KIR2DS4 /// KIR3DL3 /// KIR3DL3 /// KIR3DS1 (11738374_at) / Fold change /veh KIR2DL2 /// KIR2DL4 /// KIR2DL5A /// KIR2DL5B /// KIR2DS1 /// KIR2DS2 /// KIR2DS3 /// KIR2DS4 /// KIR3DL3 /// KIR3DL3 /// KIR3DS1 (11738374_at) / RFU C1QL1 (11718748_at) / Fold change /veh C1QL1 (11718748_at) / RFU TMPRSS4 (11747572_a_at) / Fold change /veh TMPRSS4 (11747572_a_at) / RFU HAMP (11756126_x_at) / Fold change /veh HAMP (11756126_x_at) / RFU RNFT2 (11725882_a_at) / Fold change /veh RNFT2 (11725882_a_at) / RFU NR4A2 (11747474_a_at) / Fold change /veh NR4A2 (11747474_a_at) / RFU ABCC12 (11746883_a_at) / Fold change /veh ABCC12 (11746883_a_at) / RFU TMEM136 (11760407_x_at) / Fold change /veh TMEM136 (11760407_x_at) / RFU CLDN22 /// WWC2 (11732394_at) / Fold change /veh CLDN22 /// WWC2 (11732394_at) / RFU HLA-DPB1 (11760878_x_at) / Fold change /veh HLA-DPB1 (11760878_x_at) / RFU SPINT1 (11716480_a_at) / Fold change /veh SPINT1 (11716480_a_at) / RFU GAP43 (11754022_s_at) / Fold change /veh GAP43 (11754022_s_at) / RFU A4GNT (11735810_at) / Fold change /veh A4GNT (11735810_at) / RFU PRB3 (11715151_x_at) / Fold change /veh PRB3 (11715151_x_at) / RFU TUBB4B (11761932_at) / Fold change /veh TUBB4B (11761932_at) / RFU CAPN14 (11732068_a_at) / Fold change /veh CAPN14 (11732068_a_at) / RFU TMCC2 (11721928_a_at) / Fold change /veh TMCC2 (11721928_a_at) / RFU IRGQ (11745062_a_at) / Fold change /veh IRGQ (11745062_a_at) / RFU FAM174B (11720279_a_at) / Fold change /veh FAM174B (11720279_a_at) / RFU TMPRSS4 (11748680_a_at) / Fold change /veh TMPRSS4 (11748680_a_at) / RFU FAM212B (11763350_a_at) / Fold change /veh FAM212B (11763350_a_at) / RFU PLEKHG5 (11743358_a_at) / Fold change /veh PLEKHG5 (11743358_a_at) / RFU ZSCAN30 (11745921_a_at) / Fold change /veh ZSCAN30 (11745921_a_at) / RFU CMKLR1 (11741424_a_at) / Fold change /veh CMKLR1 (11741424_a_at) / RFU LOC101060620 /// MAPK8IP1 (11723275_at) / Fold change /veh LOC101060620 /// MAPK8IP1 (11723275_at) / RFU SPTSSB (11747773_x_at) / Fold change /veh SPTSSB (11747773_x_at) / RFU PRSS12 (11739890_at) / Fold change /veh PRSS12 (11739890_at) / RFU BIN1 (11741810_x_at) / Fold change /veh BIN1 (11741810_x_at) / RFU WNT11 (11732464_a_at) / Fold change /veh WNT11 (11732464_a_at) / RFU C10orf10 (11716521_a_at) / Fold change /veh C10orf10 (11716521_a_at) / RFU C5orf56 (11738089_at) / Fold change /veh C5orf56 (11738089_at) / RFU CYB561 (11721691_x_at) / Fold change /veh CYB561 (11721691_x_at) / RFU ANKRD19P (11752326_a_at) / Fold change /veh ANKRD19P (11752326_a_at) / RFU OR2T12 /// OR2T33 /// OR2T8 (11738714_s_at) / Fold change /veh OR2T12 /// OR2T33 /// OR2T8 (11738714_s_at) / RFU VCAN (11748164_a_at) / Fold change /veh VCAN (11748164_a_at) / RFU JSRP1 (11732532_at) / Fold change /veh JSRP1 (11732532_at) / RFU KRTAP10-11 (11738290_x_at) / Fold change /veh KRTAP10-11 (11738290_x_at) / RFU MYO3A (11730013_a_at) / Fold change /veh MYO3A (11730013_a_at) / RFU EBF3 (11725865_a_at) / Fold change /veh EBF3 (11725865_a_at) / RFU CAMK2N1 (11719241_x_at) / Fold change /veh CAMK2N1 (11719241_x_at) / RFU C5orf56 (11738088_a_at) / Fold change /veh C5orf56 (11738088_a_at) / RFU OLFML3 (11715873_a_at) / Fold change /veh OLFML3 (11715873_a_at) / RFU LOC100653217 /// NTM (11731650_a_at) / Fold change /veh LOC100653217 /// NTM (11731650_a_at) / RFU MAPK11 (11762145_a_at) / Fold change /veh MAPK11 (11762145_a_at) / RFU FIZ1 (11724087_x_at) / Fold change /veh FIZ1 (11724087_x_at) / RFU OASL (11726364_x_at) / Fold change /veh OASL (11726364_x_at) / RFU SOX15 (11748057_x_at) / Fold change /veh SOX15 (11748057_x_at) / RFU CD79A (11719716_a_at) / Fold change /veh CD79A (11719716_a_at) / RFU HIST1H1D (11736915_at) / Fold change /veh HIST1H1D (11736915_at) / RFU CASKIN2 (11723855_a_at) / Fold change /veh CASKIN2 (11723855_a_at) / RFU LOC730098 (11760151_x_at) / Fold change /veh LOC730098 (11760151_x_at) / RFU OR4N2 (11742367_at) / Fold change /veh OR4N2 (11742367_at) / RFU PRRT2 (11749266_a_at) / Fold change /veh PRRT2 (11749266_a_at) / RFU SNX32 (11753110_a_at) / Fold change /veh SNX32 (11753110_a_at) / RFU CDHR5 (11726645_a_at) / Fold change /veh CDHR5 (11726645_a_at) / RFU RCAN1 (11760418_a_at) / Fold change /veh RCAN1 (11760418_a_at) / RFU FAM167A (11723789_a_at) / Fold change /veh FAM167A (11723789_a_at) / RFU FAM26E (11764081_at) / Fold change /veh FAM26E (11764081_at) / RFU ISYNA1 (11749810_s_at) / Fold change /veh ISYNA1 (11749810_s_at) / RFU ACY1 (11761880_at) / Fold change /veh ACY1 (11761880_at) / RFU 11764098_at / Fold change /veh 11764098_at / RFU SAMD14 (11745864_x_at) / Fold change /veh SAMD14 (11745864_x_at) / RFU NPB (11741838_a_at) / Fold change /veh NPB (11741838_a_at) / RFU TMPRSS6 (11731388_a_at) / Fold change /veh TMPRSS6 (11731388_a_at) / RFU KRTAP10-2 (11738614_at) / Fold change /veh KRTAP10-2 (11738614_at) / RFU ARHGAP8 /// PRR5-ARHGAP8 (11727945_x_at) / Fold change /veh ARHGAP8 /// PRR5-ARHGAP8 (11727945_x_at) / RFU KRTAP5-7 /// NADSYN1 (11734609_at) / Fold change /veh KRTAP5-7 /// NADSYN1 (11734609_at) / RFU RASL12 (11751679_a_at) / Fold change /veh RASL12 (11751679_a_at) / RFU CDKN2B (11736163_a_at) / Fold change /veh CDKN2B (11736163_a_at) / RFU PRF1 (11729649_at) / Fold change /veh PRF1 (11729649_at) / RFU, ZNF638 /// ZNF638-IT1 / Fold change vs veh, ZNF638 /// ZNF638-IT1 / RFU, PANK3 / Fold change vs veh, PANK3 / RFU, SH3YL1 / Fold change vs veh, SH3YL1 / RFU, ZEB2 / Fold change vs veh, ZEB2 / RFU, NRIP1 / Fold change vs veh, NRIP1 / RFU, PTTG1IP / Fold change vs veh, PTTG1IP / RFU, CAPN2 / Fold change vs veh, CAPN2 / RFU, MED14 / Fold change vs veh, MED14 / RFU, SNORA58 / Fold change vs veh, SNORA58 / RFU, C1orf63 / Fold change vs veh, C1orf63 / RFU, LRRFIP1 / Fold change vs veh, LRRFIP1 / RFU, NDUFAF7 / Fold change vs veh, NDUFAF7 / RFU, SLC12A2 / Fold change vs veh, SLC12A2 / RFU, IBTK / Fold change vs veh, IBTK / RFU, ESF1 / Fold change vs veh, ESF1 / Fold change vs veh, TMEM50B / RFU, TAOK1 / Fold change vs veh, TAOK1 / RFU, ACBD3 / Fold change vs veh, ACBD3 / RFU, TMA16 / Fold change vs veh, TMA16 / RFU, RWDD3 / Fold change vs veh, RWDD3 / RFU, BCAT1 / Fold change vs veh, BCAT1 / RFU, EDEM3 / Fold change vs veh, EDEM3 / RFU, TMEM33 / Fold change vs veh, TMEM33 / RFU, WDR75 / Fold change vs veh, WDR75 / RFU, AHCTF1 / Fold change vs veh, AHCTF1 / RFU, TFRC / Fold change vs veh, TFRC / RFU, ZDHHC17 / Fold change vs veh, ZDHHC17 / RFU, NOM1 / Fold change vs veh, NOM1 / RFU, ARL8B / Fold change vs veh, ARL8B / RFU, ZBTB11 / Fold change vs veh, ZBTB11 / RFU, TAMM41 / Fold change vs veh, TAMM41 / RFU, KIAA1704 /// LOC100996395 / Fold change vs veh, KIAA1704 /// LOC100996395 / RFU, ING1 / Fold change vs veh, ING1 / RFU, TRMT61B / Fold change vs veh, TRMT61B / RFU, FUBP3 / Fold change vs veh, FUBP3 / RFU, TP53 / Fold change vs veh, TP53 / RFU, TNKS2 / Fold change vs veh, TNKS2 / RFU, ZFP14 / Fold change vs veh, ZFP14 / RFU, ACTR2 / Fold change vs veh, ACTR2 / RFU, PPP3R1 / Fold change vs veh, PPP3R1 / RFU, PIK3R1 / Fold change vs veh, PIK3R1 / RFU, HNRNPA1 / Fold change vs veh, HNRNPA1 / RFU, RNF170 / Fold change vs veh, RNF170 / RFU, ZNF28 / Fold change vs veh, ZNF28 / RFU, RNGTT / Fold change vs veh, RNGTT / RFU, OGT / Fold change vs veh, OGT / RFU, BRD1 / Fold change vs veh, BRD1 / RFU, MARS / Fold change vs veh, MARS / RFU, ZNF655 / Fold change vs veh, ZNF655 / RFU, FAHD1 / Fold change vs veh, FAHD1 / RFU, BDP1 / Fold change vs veh, BDP1 / RFU, LRRCC1 / Fold change vs veh, LRRCC1 / RFU, ARID1A / Fold change vs veh, ARID1A / RFU, ZNF146 / Fold change vs veh, ZNF146 / RFU, ZNF330 / Fold change vs veh, ZNF330 / RFU, GPN3 / Fold change vs veh, GPN3 / RFU, C9orf123 / Fold change vs veh, C9orf123 / RFU, N4BP2L2 / Fold change vs veh, N4BP2L2 / RFU, ARFIP1 / Fold change vs veh, ARFIP1 / RFU, FAM179B / Fold change vs veh, FAM179B / RFU, BCL10 / Fold change vs veh, BCL10 / RFU, UHRF1BP1L / Fold change vs veh, UHRF1BP1L / RFU, BET1 / Fold change vs veh, BET1 / RFU, CNOT2 / Fold change vs veh, CNOT2 / RFU, ZNF268 / Fold change vs veh, ZNF268 / Fold change vs veh, ZNF507 / RFU, DGCR2 / Fold change vs veh, DGCR2 / RFU, WDSUB1 / Fold change vs veh, WDSUB1 / Fold change vs veh, HSP90B1 /// MIR3652 / RFU, ADSS / Fold change vs veh, ADSS / RFU, GK / Fold change vs veh, GK / RFU, ZNF148 / Fold change vs veh, ZNF148 / RFU, TAF9 / Fold change vs veh, TAF9 / RFU, SLC1A5 / Fold change vs veh, SLC1A5 / RFU, SLMO2 / Fold change vs veh, SLMO2 / RFU, ABCC4 / Fold change vs veh, ABCC4 / RFU, LOC101060439 /// RAP1B / Fold change vs veh, LOC101060439 /// RAP1B / RFU, RFX7 / Fold change vs veh, RFX7 / RFU, GTPBP10 / Fold change vs veh, GTPBP10 / RFU, CNEP1R1 / Fold change vs veh, CNEP1R1 / RFU, BIVM-ERCC5 /// ERCC5 / Fold change vs veh, BIVM-ERCC5 /// ERCC5 / RFU, ILF3 / Fold change vs veh, ILF3 / RFU 11762660_at / Fold change /veh 11762660_at / RFU VCAN (11757783_s_at) / Fold change /veh VCAN (11757783_s_at) / RFU DDX43 (11728927_at) / Fold change /veh DDX43 (11728927_at) / RFU KRT8 (11758188_x_at) / Fold change /veh KRT8 (11758188_x_at) / RFU NKD1 (11759106_at) / Fold change /veh NKD1 (11759106_at) / RFU SRD5A1 (11742802_a_at) / Fold change /veh SRD5A1 (11742802_a_at) / RFU TPSAB1 /// TPSB2 (11721975_s_at) / Fold change /veh TPSAB1 /// TPSB2 (11721975_s_at) / RFU GSTM3 (11746129_a_at) / Fold change /veh GSTM3 (11746129_a_at) / RFU IL23R (11737362_x_at) / Fold change /veh IL23R (11737362_x_at) / RFU TMEM51 (11727254_a_at) / Fold change /veh TMEM51 (11727254_a_at) / RFU PIWIL2 (11732686_x_at) / Fold change /veh PIWIL2 (11732686_x_at) / RFU ORM1 (11744905_x_at) / Fold change /veh ORM1 (11744905_x_at) / RFU CCDC152 (11743942_at) / Fold change /veh CCDC152 (11743942_at) / RFU ECM1 (11717891_a_at) / Fold change /veh ECM1 (11717891_a_at) / RFU IL23R (11748794_a_at) / Fold change /veh IL23R (11748794_a_at) / RFU TNFAIP8L3 (11732012_x_at) / Fold change /veh TNFAIP8L3 (11732012_x_at) / RFU MBOAT4 (11741988_at) / Fold change /veh MBOAT4 (11741988_at) / RFU 11764193_at / Fold change /veh 11764193_at / RFU TMEM53 (11763286_at) / Fold change /veh TMEM53 (11763286_at) / RFU MAGEB2 (11727129_at) / Fold change /veh MAGEB2 (11727129_at) / RFU TMEM200A (11744735_a_at) / Fold change /veh TMEM200A (11744735_a_at) / RFU CCDC152 (11751479_a_at) / Fold change /veh CCDC152 (11751479_a_at) / RFU FAM211A (11726209_a_at) / Fold change /veh FAM211A (11726209_a_at) / RFU RGS16 (11746705_a_at) / Fold change /veh RGS16 (11746705_a_at) / RFU VCAN (11755009_s_at) / Fold change /veh VCAN (11755009_s_at) / RFU RHOB (11743442_s_at) / Fold change /veh RHOB (11743442_s_at) / RFU RGS16 (11720943_a_at) / Fold change /veh RGS16 (11720943_a_at) / RFU RGS16 (11720944_at) / Fold change /veh RGS16 (11720944_at) / RFU, VPS4B / Fold change vs veh, VPS4B / RFU, CREB1 / Fold change vs veh, CREB1 / RFU, DNAJC13 / Fold change vs veh, DNAJC13 / RFU, GNAQ / Fold change vs veh, GNAQ / RFU, CDK5R1 / Fold change vs veh, CDK5R1 / RFU, ZRANB3 / Fold change vs veh, ZRANB3 / RFU, CUL4A / Fold change vs veh, CUL4A / RFU, CCNY / Fold change vs veh, CCNY / RFU, UFL1 / Fold change vs veh, UFL1 / RFU, COG3 / Fold change vs veh, COG3 / RFU, DIAPH2 / Fold change vs veh, DIAPH2 / RFU, SKA2 / Fold change vs veh, SKA2 / RFU, AFF3 / Fold change vs veh, AFF3 / RFU, LMF1 / Fold change vs veh, LMF1 / RFU, IPO11 / Fold change vs veh, IPO11 / RFU, DFFB / Fold change vs veh, DFFB / RFU, FOXP1 / Fold change vs veh, FOXP1 / RFU, CARD8 / Fold change vs veh, CARD8 / RFU, STRN3 / Fold change vs veh, STRN3 / RFU, ADK / Fold change vs veh, ADK / RFU, RASSF2 / Fold change vs veh, RASSF2 / RFU, WIPF1 / Fold change vs veh, WIPF1 / RFU, LARP1B / Fold change vs veh, LARP1B / RFU, RASA1 / Fold change vs veh, RASA1 / RFU, RB1 / Fold change vs veh, RB1 / RFU, PPFIA1 / Fold change vs veh, PPFIA1 / RFU, MAT2A / Fold change vs veh, MAT2A / RFU, CCT5 / Fold change vs veh, CCT5 / RFU, WDR92 / Fold change vs veh, WDR92 / RFU, CUX1 / Fold change vs veh, CUX1 / RFU, TTC7A / Fold change vs veh, TTC7A / RFU, TMEM135 / Fold change vs veh, TMEM135 / RFU, DEPTOR / Fold change vs veh, DEPTOR / RFU, CPM / Fold change vs veh, CPM / RFU, DNAJB6 / Fold change vs veh, DNAJB6 / RFU, CACNA2D3 / Fold change vs veh, CACNA2D3 / RFU, DTX4 / Fold change vs veh, DTX4 / RFU, TFCP2 / Fold change vs veh, TFCP2 / RFU, GMCL1 /// GMCL1P1 / Fold change vs veh, GMCL1 /// GMCL1P1 / RFU, AEBP2 / Fold change vs veh, AEBP2 / RFU, SNHG1 /// SNORD22 /// SNORD25 /// SNORD26 /// SNORD27 /// SNORD28 /// SNORD29 /// SNORD31 / Fold change vs veh, SNHG1 /// SNORD22 /// SNORD25 /// SNORD26 /// SNORD27 /// SNORD28 /// SNORD29 /// SNORD31 / Fold change (Aza/veh), C12orf56 (ProbeSet 11735607_a_at) / Fold change (ACY-1035/veh), C12orf56 (ProbeSet 11735607_a_at) / Fold change (Aza/veh), FGFR1OP (ProbeSet 11751329_s_at) / Fold change (ACY-1035/veh), FGFR1OP (ProbeSet 11751329_s_at) / Fold change (Aza/veh), VPS36 (ProbeSet 11739960_a_at) / Fold change (ACY-1035/veh), VPS36 (ProbeSet 11739960_a_at) / RFU SYPL1 (11715823_x_at) / Fold change /veh SYPL1 (11715823_x_at) / RFU IGFBP7 (11715501_s_at) / Fold change /veh IGFBP7 (11715501_s_at) / RFU REEP3 (11722064_at) / Fold change /veh REEP3 (11722064_at) / RFU IGLL1 (11728026_x_at) / Fold change /veh IGLL1 (11728026_x_at): dose or concentration left out as unconfirmed
Settings: MV-4-11 cells, 48 hours

## Nc1ncn([C@@H]2O[C@H](CO)[C@@H](O)[C@H]2O)c(=O)n1 [azacitidine]
  RFU TMCC2 (11721928_a_at): 12.72 RFU
